According to PMC7044277 (Nature Communications, 2020):
Several values for one entry are separate records, joined by “and”; a condition that tells them apart may be missing. Equal values may be shown once.

How the values were obtained:
Type in all cases: cell-based
320 non-olfactory GPCRs [1] = molecular target: T1, 320 non-olfactory GPCRs (Homo sapiens, UniProt Q96P66)
T1 construct: expressed in transfected cells; host or cells: HTLA cells

320 non-olfactory GPCRs [2] = molecular target: T2, 320 non-olfactory GPCRs (Homo sapiens, UniProt Q96G91); settings: receptor P2RY11; replicate values, Fig_4g
T2 construct: expressed in transfected cells; host or cells: HTLA cells

320 non-olfactory GPCRs [3] = molecular target: 320 non-olfactory GPCRs (Homo sapiens, UniProt P41145); settings: receptor OPRK1; replicate values, Fig_4g
320 non-olfactory GPCRs [4] = molecular target: T3, 320 non-olfactory GPCRs (Homo sapiens, UniProt Q96AM1); settings: receptor MRGPRF; replicate values, Fig_4g
T3 construct: expressed in transfected cells; host or cells: HTLA cells
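Throughout, for Fold of Basal: compound tested at 1 µM final concentration.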
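Throughout, for GPCRome agonism screen response: fold over basal response of each receptor without drug.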

T1 sequence (Q96P66 whole entry): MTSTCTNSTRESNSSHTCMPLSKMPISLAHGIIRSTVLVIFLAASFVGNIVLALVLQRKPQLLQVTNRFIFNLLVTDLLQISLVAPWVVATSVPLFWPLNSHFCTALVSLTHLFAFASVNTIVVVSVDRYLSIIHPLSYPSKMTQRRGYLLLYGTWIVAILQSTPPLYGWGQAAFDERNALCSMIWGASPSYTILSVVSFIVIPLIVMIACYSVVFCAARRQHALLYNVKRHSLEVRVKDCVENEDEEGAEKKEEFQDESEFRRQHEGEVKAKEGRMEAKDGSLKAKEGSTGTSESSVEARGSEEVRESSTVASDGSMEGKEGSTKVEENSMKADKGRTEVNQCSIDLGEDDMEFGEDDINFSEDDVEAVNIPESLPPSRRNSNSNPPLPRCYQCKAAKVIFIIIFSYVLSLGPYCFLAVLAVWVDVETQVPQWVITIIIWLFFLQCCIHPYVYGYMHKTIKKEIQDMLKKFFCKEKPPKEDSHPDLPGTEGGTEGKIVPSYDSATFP
T3 sequence (Q96AM1 whole entry): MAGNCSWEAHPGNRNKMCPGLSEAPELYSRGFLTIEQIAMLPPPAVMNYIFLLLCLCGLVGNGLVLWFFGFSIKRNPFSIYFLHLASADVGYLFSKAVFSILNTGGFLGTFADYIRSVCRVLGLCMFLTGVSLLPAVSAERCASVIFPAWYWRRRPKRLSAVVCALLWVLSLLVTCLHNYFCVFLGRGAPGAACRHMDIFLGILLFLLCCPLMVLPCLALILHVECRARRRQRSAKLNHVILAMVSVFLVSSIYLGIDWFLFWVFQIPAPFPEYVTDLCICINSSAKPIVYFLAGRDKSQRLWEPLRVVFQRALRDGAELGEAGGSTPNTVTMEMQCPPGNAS
Chain of 320 non-olfactory GPCRs (Homo sapiens, UniProt P41145) (P41145 whole entry): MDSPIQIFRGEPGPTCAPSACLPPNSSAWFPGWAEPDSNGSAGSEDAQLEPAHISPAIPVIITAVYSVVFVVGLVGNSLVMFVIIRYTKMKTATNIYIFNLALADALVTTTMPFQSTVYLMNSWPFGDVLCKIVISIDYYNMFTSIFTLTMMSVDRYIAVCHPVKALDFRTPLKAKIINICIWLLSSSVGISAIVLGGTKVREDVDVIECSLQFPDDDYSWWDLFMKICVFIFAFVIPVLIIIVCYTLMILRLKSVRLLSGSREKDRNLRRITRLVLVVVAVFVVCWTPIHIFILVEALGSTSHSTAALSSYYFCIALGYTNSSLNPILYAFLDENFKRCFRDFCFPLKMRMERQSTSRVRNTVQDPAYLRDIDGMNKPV
T2 sequence (Q96G91 whole entry): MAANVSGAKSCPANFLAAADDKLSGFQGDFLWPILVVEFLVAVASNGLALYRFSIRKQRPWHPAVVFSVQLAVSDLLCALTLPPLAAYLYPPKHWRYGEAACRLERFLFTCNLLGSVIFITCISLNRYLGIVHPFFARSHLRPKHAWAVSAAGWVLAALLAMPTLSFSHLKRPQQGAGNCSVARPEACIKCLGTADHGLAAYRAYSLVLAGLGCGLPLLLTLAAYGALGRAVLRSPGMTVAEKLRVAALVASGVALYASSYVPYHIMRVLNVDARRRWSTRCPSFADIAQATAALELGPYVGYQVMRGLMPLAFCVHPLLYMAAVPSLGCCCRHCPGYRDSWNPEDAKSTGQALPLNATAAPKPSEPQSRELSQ

CCOc1cccc2cc(C(C)NCC3(O)CCCCC3)oc12 (stereo not shown) [O4LE6]
Fold of Basal (320 non-olfactory GPCRs [1]): 1.216 and 1.226 and 0.7864 and 1.078 | GPCRome agonism screen response (320 non-olfactory GPCRs [2]): 1.047 and 1.146 and 1.063 and 1.471 | GPCRome agonism screen response (320 non-olfactory GPCRs [3]): 0.2798 and 2.137 and 1.223 and 1.286 | GPCRome agonism screen response (320 non-olfactory GPCRs [4]): 0.9496 and 0.9687 and 0.9252 and 0.5763
